Test results reported in publication PMC12748989 (Nature Communications, 2025).

Tests used:
PBMC = settings: 12.5 µM

SMILES | Average (percentage cell inhibition), Mastoparan PBMC (PBMC) [%] | Average (percentage cell inhibition), Dmastoparan MDA-MB231 12.5uM (MDA-MB-231 cells) [%]
CC[C@H](C)[C@H](N)C(=O)N[C@@H](CC(N)=O)C(=O)N[C@@H](CC(C)C)C(=O)N[C@@H](CCCCN)C(=O)N[C@@H](C)C(=O)N[C@@H](CC(C)C)C(=O)N[C@@H](C)C(=O)N[C@@H](Cc1ccc(O)cc1)C(=O)N[C@@H](CC(C)C)C(=O)N[C@@H](C)C(=O)N[C@@H](CCCCN)C(=O)N[C@@H](CCCCN)C(=O)N[C@H](C(=O)N[C@@H](CC(C)C)C(N)=O)[C@@H](C)CC [Y8] | 22.0038 | 50.1841
CC[C@H](C)[C@H](N)C(=O)N[C@@H](CC(N)=O)C(=O)N[C@@H](CC(C)C)C(=O)N[C@@H](CCCCN)C(=O)N[C@@H](C)C(=O)N[C@@H](CC(C)C)C(=O)N[C@@H](C)C(=O)N[C@@H](C)C(=O)N[C@@H](CC(C)C)C(=O)N[C@H](C(=O)N[C@@H](CCCCN)C(=O)N[C@@H](CCCCN)C(=O)N[C@H](C(=O)N[C@@H](CC(C)C)C(N)=O)[C@@H](C)CC)[C@@H](C)O [T10] | 8.853 | 27.2715
CC[C@H](C)[C@H](N)C(=O)N[C@@H](CC(N)=O)C(=O)N[C@@H](CC(C)C)C(=O)N[C@@H](CCCCN)C(=O)N[C@@H](C)C(=O)N[C@@H](CC(C)C)C(=O)N[C@@H](C)C(=O)N[C@@H](C)C(=O)N[C@@H](CC(C)C)C(=O)N[C@@H](C)C(=O)N[C@@H](CCCCN)C(=O)N[C@@H](CCCCN)C(=O)N[C@H](C(=O)N[C@@H](CC(C)C)C(N)=O)[C@@H](C)O [T13] | 3.307 | 38.2444
CC[C@H](C)[C@H](N)C(=O)NCC(=O)N[C@@H](CC(C)C)C(=O)N[C@@H](CCCCN)C(=O)N[C@@H](C)C(=O)N[C@@H](CC(C)C)C(=O)N[C@@H](C)C(=O)N[C@@H](C)C(=O)N[C@@H](CC(C)C)C(=O)N[C@@H](C)C(=O)N[C@@H](CCCCN)C(=O)N[C@@H](CCCCN)C(=O)N[C@H](C(=O)N[C@@H](CC(C)C)C(N)=O)[C@@H](C)CC [G2] | 15.6884 | 71.0378
CC[C@H](C)[C@H](NC(=O)[C@H](CCCCN)NC(=O)[C@H](CCCCN)NC(=O)[C@H](C)NC(=O)[C@H](CC(C)C)NC(=O)[C@H](C)NC(=O)[C@H](C)NC(=O)[C@H](CC(C)C)NC(=O)[C@H](C)NC(=O)[C@H](CCCCN)NC(=O)[C@H](CC(C)C)NC(=O)[C@H](CC(N)=O)NC(=O)[C@@H](N)C(C)C)C(=O)N[C@@H](CC(C)C)C(N)=O [V1] | 10.9012 | 28.5856
CC[C@H](C)[C@H](N)C(=O)N[C@@H](CC(N)=O)C(=O)N[C@@H](CC(C)C)C(=O)N[C@@H](CCCCN)C(=O)N[C@@H](C)C(=O)N[C@@H](CC(C)C)C(=O)N[C@@H](C)C(=O)N[C@@H](C)C(=O)N[C@@H](CC(C)C)C(=O)N[C@@H](C)C(=O)N[C@@H](CC(C)C)C(=O)N[C@@H](CCCCN)C(=O)N[C@H](C(=O)N[C@@H](CC(C)C)C(N)=O)[C@@H](C)CC [L11] | 23.4198 | 59.9826
CC[C@H](C)[C@H](N)C(=O)N[C@@H](CC(N)=O)C(=O)N[C@@H](CC(C)C)C(=O)N[C@@H](CCCCN)C(=O)N[C@@H](C)C(=O)N[C@@H](CC(C)C)C(=O)N[C@@H](C)C(=O)N[C@@H](C)C(=O)N[C@H](C(=O)N[C@@H](C)C(=O)N[C@@H](CCCCN)C(=O)N[C@@H](CCCCN)C(=O)N[C@H](C(=O)N[C@@H](CC(C)C)C(N)=O)[C@@H](C)CC)[C@@H](C)O [T9] | 2.309 | 18.2148
CC[C@H](C)[C@H](N)C(=O)N[C@@H](CC(N)=O)C(=O)N[C@@H](CC(C)C)C(=O)N[C@@H](CCCCN)C(=O)N[C@@H](C)C(=O)N[C@@H](CC(C)C)C(=O)N[C@@H](C)C(=O)N[C@@H](C)C(=O)N[C@@H](CC(C)C)C(=O)N[C@@H](CC(N)=O)C(=O)N[C@@H](CCCCN)C(=O)N[C@@H](CCCCN)C(=O)N[C@H](C(=O)N[C@@H](CC(C)C)C(N)=O)[C@@H](C)CC [N10] | 1.8653 | 9.754
